Experiments:
Spodoptera littoralis [1] = test: Antifeedant activity against Spodoptera littoralis larvae fed on compound-treated disk after 18 hr by two-choice assay; format: functional
Spodoptera littoralis [2] = test: Antifeedant activity against Spodoptera littoralis larvae fed on compound-treated disk at 100 ppm after 18 hr by two-choice assay; format: functional

Q: CC(=O)O[C@@H]1O[C@H](c2ccoc2)C[C@]12[C@H](C)[C@@H](OC(C)=O)C(=O)[C@H]1[C@@H]2CCC[C@@]12CO[C@@H](C)O2 was tested. Which AFC50 (Spodoptera littoralis [1]) did it give?
A: >390 ppm

Q: What about the AFI (Spodoptera littoralis [2]) of the same molecule?
A: 34.1%

Q: How did the AFC50 (Spodoptera littoralis [1]) turn out when CC(=O)OC[C@]12[C@H](CCC[C@]13CO3)[C@@]1(C[C@@H](c3ccoc3)O[C@@H]1O)[C@H](C)[C@@H](O)[C@@H]2OC(C)=O was run?
A: 39 ppm

Q: And the AFI (Spodoptera littoralis [2])?
A: 54%

Q: For CC(=O)O[C@@H]1O[C@H](c2ccoc2)C[C@]12[C@H](C)[C@@H](OC(C)=O)C(=O)[C@H]1[C@@H]2CCC[C@@]12CO[C@H](C)O2, which AFC50 (Spodoptera littoralis [1]) is on record?
A: >1000 ppm

Q: What about the AFI (Spodoptera littoralis [2]) of the same molecule?
A: -5.4%

Q: CC(=O)OC[C@]12C(=O)[C@H](O)[C@@H](C)[C@]3(C[C@@H](c4ccoc4)O[C@H]3OC(C)=O)[C@H]1CCC[C@]21CO1 [ERIOCEPHALIN] was tested. Which AFC50 (Spodoptera littoralis [1]) did it give?
A: >1000 ppm

Q: And the AFI (Spodoptera littoralis [2])?
A: 5.5%

Q: How did the AFC50 (Spodoptera littoralis [1]) turn out when CC(=O)OC[C@]12[C@H](CCC[C@]13CO3)[C@@]1(C[C@@H](c3ccoc3)O[C@@H]1O)[C@H](C)[C@@H](OC(C)=O)[C@@H]2O was run?
A: >1000 ppm

Q: What about the AFI (Spodoptera littoralis [2]) of the same molecule?
A: 5.4%

Q: Which results are given for CC(=O)OC[C@]12[C@H](CCC[C@]13CO3)[C@@]1(C[C@@H](c3ccoc3)O[C@@H]1O)[C@H](C)[C@@H](O)[C@@H]2O?
A: AFC50 (Spodoptera littoralis [1]): 300 ppm; AFI (Spodoptera littoralis [2]): 30.4%

Q: For CC(=O)OC[C@]12[C@H](CCC[C@]13CO3)[C@@]1(C[C@@H](c3ccoc3)O[C@@H]1O)[C@H](C)[C@@H](OC(C)=O)[C@@H]2OC(C)=O, which AFC50 (Spodoptera littoralis [1]) is on record?
A: >1000 ppm

Q: And the AFI (Spodoptera littoralis [2])?
A: -14.3%

Q: What does the source list for CC(=O)OC[C@]12[C@H](CCC[C@]13CO3)[C@@]1(C[C@@H](c3ccoc3)O[C@H]1OC(C)=O)[C@H](C)[C@@H](OC(C)=O)[C@@H]2O?
A: AFC50 (Spodoptera littoralis [1]): >1000 ppm; AFI (Spodoptera littoralis [2]): -21.1%

Q: Which AFC50 (Spodoptera littoralis [1]) does the source give for CC(=O)OC[C@]12[C@H](CCC[C@]13CO3)[C@@]1(C[C@@H](c3ccoc3)O[C@@H]1OC(C)=O)[C@H](C)[C@@H](OC(C)=O)[C@@H]2OC(C)=O here?
A: >1000 ppm

Q: And the AFI (Spodoptera littoralis [2])?
A: 26.7%

From ChEMBL document CHEMBL3045997, “Some remarkable reactions of the diterpene eriocephalin: Neo-clerodane derivatives with insect antifeedant activity” (1994)
